Assay results taken from patent publication US20250243180A1, “TARGETED PROTEIN DEGRADATION” (Monte Rosa Therapeutics AG, priority 2023, published 2025).
Like-named read-outs stand apart in the source and are kept apart here.

Legend:
NEK7 = NEK7 (Homo sapiens (Human), UniProt Q8TDX7+Q96SW2); assay: NEK7 NanoBiT degradation assay in Cal51 NEK7 NanoBiT cell line; assay type: cell-based; details: Cal51 NEK7 NanoBiT cells, 24 hours; for Dmax: CAL-51
How it was run: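 EC50 comes from a 4-parameter fit of control-normalized luminescence. The luminescence reports HiBiT-NEK7 (endogenous knock-in) complemented by stably expressed LgBiT in Cal51 cells after 24 h compound exposure at 37 °C. Final concentrations ran 1 μM to 0.05 nM, with Endurazine substrate present in the medium throughout.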

CRBN-DDB1 = CRBN-DDB1 (Homo sapiens (Human), UniProt Q96SW2); assay: Compound binding to CRBN by HTRF assay
CRBN-DDB1, sequence (Q96SW2 whole entry): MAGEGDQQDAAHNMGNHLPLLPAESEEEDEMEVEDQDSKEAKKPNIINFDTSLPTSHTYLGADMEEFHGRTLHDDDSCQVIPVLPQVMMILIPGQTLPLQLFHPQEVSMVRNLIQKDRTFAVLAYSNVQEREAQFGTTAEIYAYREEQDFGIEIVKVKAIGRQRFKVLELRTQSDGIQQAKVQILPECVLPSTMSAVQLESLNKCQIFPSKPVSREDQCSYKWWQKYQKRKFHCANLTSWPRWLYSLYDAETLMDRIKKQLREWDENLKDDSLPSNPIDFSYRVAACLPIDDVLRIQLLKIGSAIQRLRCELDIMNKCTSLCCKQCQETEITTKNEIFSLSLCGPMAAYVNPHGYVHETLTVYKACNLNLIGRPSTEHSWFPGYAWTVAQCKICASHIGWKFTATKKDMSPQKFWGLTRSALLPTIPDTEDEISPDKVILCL
CRBN-DDB1, sequence (Q16531 whole entry partner): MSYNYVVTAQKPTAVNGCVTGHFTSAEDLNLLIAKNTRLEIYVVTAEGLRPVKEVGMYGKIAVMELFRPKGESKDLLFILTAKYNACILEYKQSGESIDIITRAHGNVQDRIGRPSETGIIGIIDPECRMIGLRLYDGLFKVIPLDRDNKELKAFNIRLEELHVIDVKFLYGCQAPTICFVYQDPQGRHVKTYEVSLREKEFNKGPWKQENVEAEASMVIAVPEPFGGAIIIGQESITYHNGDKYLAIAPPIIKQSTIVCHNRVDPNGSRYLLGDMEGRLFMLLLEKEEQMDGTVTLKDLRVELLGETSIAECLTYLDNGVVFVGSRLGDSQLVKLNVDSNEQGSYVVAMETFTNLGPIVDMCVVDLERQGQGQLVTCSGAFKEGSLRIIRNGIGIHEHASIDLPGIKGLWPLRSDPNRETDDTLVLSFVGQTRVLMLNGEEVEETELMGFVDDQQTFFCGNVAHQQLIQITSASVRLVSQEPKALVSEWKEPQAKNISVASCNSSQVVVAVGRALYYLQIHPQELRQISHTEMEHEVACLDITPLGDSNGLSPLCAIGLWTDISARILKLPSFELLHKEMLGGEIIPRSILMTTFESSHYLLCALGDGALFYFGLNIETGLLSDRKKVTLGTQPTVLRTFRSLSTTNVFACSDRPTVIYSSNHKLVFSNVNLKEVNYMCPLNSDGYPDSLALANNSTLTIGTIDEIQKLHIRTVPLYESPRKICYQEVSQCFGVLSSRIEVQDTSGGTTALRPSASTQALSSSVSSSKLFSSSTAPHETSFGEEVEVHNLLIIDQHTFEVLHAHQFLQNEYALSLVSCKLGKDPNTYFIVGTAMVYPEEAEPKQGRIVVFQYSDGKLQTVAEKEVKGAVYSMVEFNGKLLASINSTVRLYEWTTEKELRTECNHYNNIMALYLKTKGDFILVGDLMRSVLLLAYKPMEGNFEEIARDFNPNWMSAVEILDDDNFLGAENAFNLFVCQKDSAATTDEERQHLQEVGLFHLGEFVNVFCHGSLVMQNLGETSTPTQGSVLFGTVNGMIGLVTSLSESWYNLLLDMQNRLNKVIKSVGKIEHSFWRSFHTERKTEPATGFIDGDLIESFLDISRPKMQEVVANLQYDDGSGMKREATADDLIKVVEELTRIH
How it was run: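 Ki calculated via Cheng-Prusoff from geometric-mean EC50 values, after normalizing the HTRF ratio to lenalidomide (active) and DMSO (neutral) controls. Compounds (11 points, 1:3 steps) incubated 30 min at ambient temperature with CRBN-DDB1 2.5 nM, anti-His Tb cryptate and Cy5-thalidomide tracer 100 nM.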

[1] = NEK7 degradation, read-out: NanoBiT Dmax
[2] = NEK7 degradation, read-out: NanoBiT DC50

NEK7, sequence (Q8TDX7 whole entry): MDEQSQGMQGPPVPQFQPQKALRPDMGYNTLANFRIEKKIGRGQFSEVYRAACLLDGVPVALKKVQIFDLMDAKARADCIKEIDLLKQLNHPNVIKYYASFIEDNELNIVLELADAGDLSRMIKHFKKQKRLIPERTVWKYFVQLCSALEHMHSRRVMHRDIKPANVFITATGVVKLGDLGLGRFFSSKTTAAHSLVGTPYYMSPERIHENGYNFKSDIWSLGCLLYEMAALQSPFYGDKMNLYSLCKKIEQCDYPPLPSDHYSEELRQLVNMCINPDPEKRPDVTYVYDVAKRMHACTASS
NEK7, sequence (Q96SW2 whole entry): as the sequence (Q96SW2 whole entry) above
NEK7, sequence (Q16531 2-1140 partner): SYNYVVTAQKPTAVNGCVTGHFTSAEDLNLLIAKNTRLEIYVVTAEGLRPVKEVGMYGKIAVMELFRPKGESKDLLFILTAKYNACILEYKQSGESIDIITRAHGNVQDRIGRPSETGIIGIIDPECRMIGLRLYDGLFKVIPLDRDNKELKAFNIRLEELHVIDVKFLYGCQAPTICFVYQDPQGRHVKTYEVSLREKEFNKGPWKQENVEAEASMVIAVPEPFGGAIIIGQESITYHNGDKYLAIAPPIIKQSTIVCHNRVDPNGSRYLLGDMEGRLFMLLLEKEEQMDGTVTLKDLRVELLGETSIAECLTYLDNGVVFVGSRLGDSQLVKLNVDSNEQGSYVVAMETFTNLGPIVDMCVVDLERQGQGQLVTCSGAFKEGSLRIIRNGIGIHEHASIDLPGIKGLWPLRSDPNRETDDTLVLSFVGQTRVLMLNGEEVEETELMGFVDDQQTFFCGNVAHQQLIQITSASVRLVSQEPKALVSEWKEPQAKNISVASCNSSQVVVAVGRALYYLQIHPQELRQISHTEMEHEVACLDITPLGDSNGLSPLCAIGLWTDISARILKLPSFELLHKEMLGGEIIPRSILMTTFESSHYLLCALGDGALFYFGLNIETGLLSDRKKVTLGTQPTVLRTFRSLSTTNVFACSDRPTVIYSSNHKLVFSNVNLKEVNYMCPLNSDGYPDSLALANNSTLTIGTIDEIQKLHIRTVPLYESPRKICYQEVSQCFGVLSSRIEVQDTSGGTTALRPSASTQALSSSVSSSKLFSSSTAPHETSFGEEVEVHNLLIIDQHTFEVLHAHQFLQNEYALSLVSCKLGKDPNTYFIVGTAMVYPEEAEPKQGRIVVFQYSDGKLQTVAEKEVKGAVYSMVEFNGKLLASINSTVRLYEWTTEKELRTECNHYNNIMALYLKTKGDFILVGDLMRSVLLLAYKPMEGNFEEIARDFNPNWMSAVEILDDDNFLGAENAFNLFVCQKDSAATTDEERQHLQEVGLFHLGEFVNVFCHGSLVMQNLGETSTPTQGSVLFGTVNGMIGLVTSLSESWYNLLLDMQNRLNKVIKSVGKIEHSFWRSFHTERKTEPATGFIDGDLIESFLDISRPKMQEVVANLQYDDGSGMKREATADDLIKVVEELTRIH

Compound	Dmax (NEK7; read-out: NEK7 NanoBiT Dmax) [%]	Dmax (NEK7; [1]) [%]	DC50 (NEK7; read-out: NEK7 NanoBiT DC50) [nM]	DC50 (NEK7; [2]) [nM]	EC50 (CRBN-DDB1) [nM]	EC50 (CRBN-DDB1; HTRF class, Cereblon binding) [nM]
O=C1CCC(c2c(Cl)cc(CNC(=O)C3(c4ccccc4)CCOCC3)cc2Cl)C(=O)N1 (stereo not drawn) [Compound 128, N-(3,5-dichloro-4-(2,6-dioxopiperidin-3-yl)benzyl)-4-phenyltetrahydro-2H-pyran-4-carboxamide]	95	> 75	8	≤ 100	40	≤ 100
CC(C)(C(=O)NCc1cc(Cl)c(C2CCC(=O)NC2=O)c(Cl)c1)c1cccc(C#N)c1 (stereo not drawn) [Compound 21, 2-(3-cyanophenyl)-N-(3,5-dichloro-4-(2,6-dioxopiperidin-3-yl)benzyl)-2-methylpropanamide]	94	> 75	3	≤ 100	90	≤ 100
CC(C)(C(=O)NCc1cc(Cl)c(C2CCC(=O)NC2=O)c(Cl)c1)c1ncc(Cl)cn1 (stereo not drawn) [Compound 194]	96	> 75	1	≤ 100	120	100 to 1000
Cc1ocnc1C(C)(C)C(=O)NCc1cc(Cl)c(C2CCC(=O)NC2=O)c(Cl)c1 (stereo not drawn) [Compound 236]	71	50 to 75	41	≤ 100	250	100 to 1000
CC(C)(C(=O)NCc1cc(F)c(C2CCC(=O)NC2=O)c(Cl)c1)c1ccncc1 (stereo not drawn) [Compound 106]	80	> 75	26	≤ 100	240	100 to 1000
COc1ccc(C(C)(C)C(=O)NCc2cc(F)c(C3CCC(=O)NC3=O)c(Cl)c2)cn1 (stereo not drawn) [Compound 250]	96	> 75	2	≤ 100	70	≤ 100
CC(C)(C(=O)NCc1cc(Cl)c([C@H]2CCC(=O)NC2=O)c(Cl)c1)c1ncc(C#N)cn1 (single isomer, unassigned) [Compound 153]	90	> 75	53	≤ 100	≥ 10000	> 1000
Cn1ncc(C(C)(C)C(=O)NCc2cc(Cl)c(C3CCC(=O)NC3=O)c(Cl)c2)cc1=O (stereo not drawn) [Compound 9, N-(3,5-dichloro-4-(2,6-dioxopiperidin-3-yl)benzyl)-2-methyl-2-(1-methyl-6-oxo-1,6-dihydropyridazin-4-yl)propanamide]	85	> 75	22	≤ 100	210	100 to 1000
CC(C)(C(=O)NCc1ccc(C2CCC(=O)NC2=O)c(Cl)c1)c1nc2ccccc2o1 (stereo not drawn) [Compound 246, 2-(benzo[d]oxazol-2-yl)-N-(3-chloro-4-(2,6-dioxopiperidin-3-yl)benzyl)-2-methylpropanamide]	82	> 75	27	≤ 100	180	100 to 1000
Cc1cc(CNC(=O)C(C)(C)c2ccncc2)cc(Cl)c1C1CCC(=O)NC1=O (stereo not drawn) [Compound 107, N-(3-chloro-4-(2,6-dioxopiperidin-3-yl)-5-methylbenzyl)-2-methyl-2-(pyridin-4-yl)propanamide]	82	> 75	28	≤ 100	440	100 to 1000
CC(C)(C(=O)NCc1ccc(C2CCC(=O)NC2=O)c(Cl)c1)c1ccc(C#N)cc1 (stereo not drawn) [Compound 28]	91	> 75	17	≤ 100	470	100 to 1000
Cc1conc1C(C)(C)C(=O)NCc1cc(Cl)c(C2CCC(=O)NC2=O)c(Cl)c1 (stereo not drawn) [Compound 201]	93	> 75	7	≤ 100	140	100 to 1000
Cc1cc(C(C)(C)C(=O)NCc2cc(Cl)c(C3CCC(=O)NC3=O)c(Cl)c2)cc(=O)[nH]1 (stereo not drawn) [Compound 42, N-(3,5-dichloro-4-(2,6-dioxopiperidin-3-yl)benzyl)-2-methyl-2-(6-methyl-2-oxo-1,2-dihydropyridin-4-yl)propanamide]	93	> 75	20	≤ 100	180	100 to 1000
CC(C)(C(=O)NCc1cc(Cl)c(C2CCC(=O)NC2=O)c(Cl)c1)c1ncc(OC(F)(F)F)cn1 (stereo not drawn) [Compound 229, N-(3,5-dichloro-4-(2,6-dioxopiperidin-3-yl)benzyl)-2-methyl-2-(5-(trifluoromethoxy)-pyrimidin-2-yl)propanamide]	88	> 75	12	≤ 100	120	100 to 1000
COCc1cnc(C(C)(C)C(=O)NCc2cc(Cl)c(C3CCC(=O)NC3=O)c(Cl)c2)cn1 (stereo not drawn) [Compound 222, N-(3,5-dichloro-4-(2,6-dioxopiperidin-3-yl)benzyl)-2-(5-(methoxymethyl)pyrazin-2-yl)-2-methylpropanamide]	73	50 to 75	54	≤ 100	160	100 to 1000
CC(C)(C(=O)NCc1cc(Cl)c(C2CCC(=O)NC2=O)c(Cl)c1)c1ccn2ccnc2c1 (stereo not drawn) [Compound 55]	97	> 75	1	≤ 100	100	100 to 1000
CCOc1cnc(C(C)(C)C(=O)NCc2cc(F)c(C3CCC(=O)NC3=O)c(Cl)c2)cn1 (stereo not drawn) [Compound 252]	93	> 75	3	≤ 100	50	≤ 100
CC(C)(C(=O)NCc1cc(Cl)c([C@]2(F)CCC(=O)NC2=O)c(Cl)c1)c1ccccc1 (single isomer, unassigned) [Compound 273]	70	50 to 75	136	100 to 1000	250	100 to 1000
CC(C)(C(=O)NCc1cc(Cl)c([C@@H]2CCC(=O)NC2=O)c(Cl)c1)c1ncccn1 (single isomer, unassigned) [Compound 179]	59	50 to 75	578	100 to 1000	4170	> 1000
COc1cnc(C(C)(C)C(=O)NCc2cc(Cl)c(C3CCC(=O)NC3=O)c(Cl)c2)cn1 (stereo not drawn) [Compound 209]	97	> 75	1	≤ 100	90	≤ 100
O=C1CCC(c2c(Cl)cc(CNC(=O)C3(c4ccc(F)cc4)CC(F)(F)C3)cc2Cl)C(=O)N1 (stereo not drawn) [Compound 139, N-(3,5-dichloro-4-(2,6-dioxopiperidin-3-yl)benzyl)-3,3-difluoro-1-(4-fluorophenyl)cyclobutane-carboxamide]	90	> 75	8	≤ 100	40	≤ 100
CC(C)(C(=O)NCc1cc(Cl)c(C2CCC(=O)NC2=O)c(Cl)c1)c1cc[nH]c(=O)c1 (stereo not drawn) [Compound 84]	93	> 75	22	≤ 100	180	100 to 1000
O=C1CCC(c2c(Cl)cc(CNC(=O)C3(c4ccc(F)cc4)COC3)cc2Cl)C(=O)N1 (stereo not drawn) [Compound 140]	89	> 75	14	≤ 100	90	≤ 100
